Measured values reported in article PMC6312359, “Diisopropylphenyl-imidazole (DII): A new compound that exerts anthelmintic activity through novel molecular mechanisms” (PLoS Neglected Tropical Diseases, 2018).
Entries after “also recorded” stand apart in the source; their conditions may differ.

Experiments:
C. elegans [1] = test: Screening imidazole compounds: worm survival; assay type: in vivo, Caenorhabditis elegans; conditions: 150 μg/ml, 72 h, 20°C, young adult wild-type worms, liquid medium (S-Basal) with E. coli OP50
Description: 100–150 young adult wild-type worms were exposed to these compounds (150 μg/ml) in liquid medium (S-Basal) containing E. coli OP50. Micromolar concentrations for each compound are: 487 μM for 1, 428 μM for 2, 410 μM for 3, 375 μM for 4, 789 μM for 5, 735 μM for 6, 389 μM for 7, 319 μM for 8, 263 μM for 9, 806 μM for 10 and 657 μM for 11. Compounds were dissolved in water or DMSO according to their solubility. After 72 h, animal survival was analyzed. An animal was considered dead if it made no movement in response to gentle prodding with a worm pick. At least three independent experiments were analyzed.
We exposed 100–150 young adult worms to these compounds in liquid medium (S-Basal) containing the bacteria E. coli OP50 as a food source. After 72 h at 20°C, we analyzed worm survival (Fig 1B). […] The drug concentration chosen for this screening was 150 μg/ml, which is similar to those used in other screening studies. The corresponding molar concentration for each compound is detailed in Materials and Methods. Depending on their solubility properties, the compounds were dissolved either in water or DMSO (up to 0.75% final concentration).

C. elegans [2] = test: Lethality assays, dose-dependent, wild-type L4; assay type: in vivo, Caenorhabditis elegans; conditions: for LC50: Caenorhabditis elegans, L4 wild-type
Description: Dose-dependent lethality was quantified by exposing 40 L4s to DII (0–1000 μM) dissolved in solid medium for 8 and 24 h at 20°C. For survival to 96 h of DII exposure the temperature used was 13°C to avoid food depletion.

HEK-293 cells = test: Human cell toxicity, propidium iodide staining; assay type: cell-based
Description: HEK-293 cells were cultured in DMEM medium (Gibco, USA) containing 10% fetal bovine serum (FBS) (Gibco, USA) and penicillin/streptomycin (Gibco, USA) at 37°C in an atmosphere containing 5% CO2. Before DII exposure, cells were dissociated using trypsin-EDTA and seeded in 96 multiwell plates at a density of 1x10^4 cells/ml. Cells were resuspended in fresh medium and different drug concentrations were subsequently added. After 8 h of incubation with 0, 200 and 600 μM of DII or 96 h of incubation with 0 and 100 μM of DII, cells were washed 3 times with PBS and propidium iodide (PI, final concentration 50 μg/ml) was added to stain dead cells. PI incubation was performed for 10 min in the dark at room temperature. DMSO (0–0.7%) and chloroquine (50–200 μM) were used as vehicle and positive controls, respectively. Images were acquired with a Nikon Eclipse TE 2000 fluorescence microscope. The number of stained cells was analyzed manually. At least 3 independent experiments were analyzed.

C. elegans [3] = test: Acute paralysis assays; assay type: in vivo, Caenorhabditis elegans; conditions: 10 min
Description: Acute paralysis assays were carried out in microtiter plates containing the drug dissolved in M9 buffer. […] Each drug concentration was tested in two wells (containing 30 animals each) within a single experiment. […] The experiment was independently repeated at least three times.

C. elegans [4] = test: Worm cut preparation paralysis; assay type: in vivo, Caenorhabditis elegans; conditions: 10 min; DII 600 μM, levamisole 10 μM; listed as DII
Description: Cutworm assays were performed as previously described with slight modifications. Briefly, synchronized young adult animals were mounted in a glass microscope slide containing Artificial Perienteric Fluid (APF) (67 mM NaCl, 67 mM NaCH3COOH, 3 mM KCl, 15.7 mM MgCl2, 3 mM CaCl2 and 5 mM Tris, pH 7.6). 10 animals were severed between the middle and tail, approximately two-thirds from the anterior end. Worms were subsequently transferred to a multi-well plate containing APF or drug-APF and paralysis was evaluated after 10 minutes. All experiments were performed at least three times.

C. elegans [5] = test: Pharyngeal pumping; assay type: in vivo, Caenorhabditis elegans; conditions: wild-type and unc-29 young adults, two hours of exposure; listed as DII
Description: Supplementary file pntd.0007021.s006.tif: S6 Fig DII effects on pharyngeal pumping. Wild-type and unc-29 young adult worms (24 h past L4) were transferred to bacteria-seeded NGM plates containing different DII concentrations. After two hours of DII exposure, the number of contractions in the terminal bulb of the pharynx (pumps per minute) was counted using a stereomicroscope at 50x magnification. […] Bars represent the mean ± SEM from n = 20 animals per condition. Statistical differences compared to the non-treated condition (0 μM DII) within the same strain (ns: no statistically significant p>0.05, ***p<0.001). (TIF) Click here for additional data file.

C. elegans [6] = test: Larvicidal activity assays
Description: Three concentrations of drugs were used (100, 300 and 600 μM) and each concentration was repeated in triplicate. After 24, 48 and 72 h alive worms were scored and the results were expressed as the percentage of living worms related to the initial number of L1 animals. This experiment was independently repeated three times.

Structure (SMILES): CC(C)c1cccc(C(C)C)c1-n1ccnc1 [Compound 11]
- worm death (C. elegans [1]): 100%
- lethality (C. elegans [2]; 24 h of exposure, micromolar concentrations): 100%
- LC50 (C. elegans [2]; 8 h of exposure): 448.5 ± 1.1 µM
- LC50 (C. elegans [2]; 24 h of exposure): 342.3 ± 1 µM
- LC50 (C. elegans [2]; 96 h of exposure, 13°C): 23.4 ± 1.06 µM
- cell viability (HEK-293 cells; 0–600 μM, 8 h): do not affect viability on HEK-293 cells
- cell viability (HEK-293 cells; up to 100 μM, 96 h): do not affect cell viability
- paralysis in CB407 unc-49(e407)III hypersensitive strain (C. elegans [3]; 100 μM): no paralyzing effects
- immobilized animals (C. elegans [3]; 800 μM (highest concentration tested)): 25%
- change of the dose-effect curve of levamisole by DII (C. elegans [3]; DII 100 and 200 μM, intact animals): no significant changes
- paralysis in cut specimens (C. elegans [4]): unable to induce paralysis; also recorded: fail to produce significant paralysis
- pharyngeal pumping rate (C. elegans [5]): inhibits the pharyngeal pumping; also recorded: decreases pharyngeal pumping rate
- larvicidal effect on unc-29 null mutant larvae (C. elegans [6]; 600 μM): as sensitive to the larvicidal effects of DII as the wild-type strain
- larvicidal effect on unc-38, unc-63, lev-8 and lev-1 larvae (C. elegans [6]; 600 μM, 24, 48 and 72 h): sensitive to DII
- larval viability, wild-type L1 (C. elegans [6]; 100, 300 and 600 μM, 24, 48 and 72 h): significant decrease
